Results as given in US11026937B2, “Heteroaryl inhibitors of PAD4” (PADLOCK THERAPEUTICS, INC., priority 2016, dated 2021).
Where two headings read alike, the source gives them in different places.

Target: hPAD4 enzyme (Homo sapiens (Human), UniProt Q9UM07)
Assay: PAD4 assay (hPAD4-RFMS, RapidFire mass spectrometry)
Assay type: biochemical
Conditions: 100 nM hPAD4, 50 μM substrate peptide, 1 mM CaCl2, 65 mins at 37° C.
Method: Compounds of the present invention were assayed as inhibitors of PAD4 using the assay protocol described below.
Compounds were solubilized in 100% DMSO to achieve 100 mM final compound concentration. Compound stock solutions were stored at RT. A series of dilutions were prepared in DMSO and mixed 8 times with 20 μL mixing volume. Final assay conditions were as follows:
Assay buffer (as aforementioned): 100 mM Tris-HCl (pH 7.6), 2 mM DTT, 1 mM CaCl2
Total incubation time: 65 mins at 37° C.
Stop solution: 40 μl 5% TCA in ACN
0.25 μL of compound solution was added to 10 μL of 200 nM PAD4 in assay buffer (100 mM Tris-HCl pH 7.6, 2 mM DTT). After 5 mins, 10 μL of 100 μM of substrate in buffer (100 mM Tris-HCl pH 7.6, 2 mM DTT, 2 mM CaCl2) was added and the reaction incubated for 60 mins at 37° C. The enzymatic reaction was quenched by addition of 40 μl of 5% TCA in ACN (1.7% TCA final concentration) stop solution.
The compound numbers correspond to the compound numbers in Tables 1 and 2. […] The term pIC50=−log(IC50). […] “NA” stands for “not assayed.”

[1] = read-out: hPAD4-RFMS: IC50 (μM) (Average)
[2] = read-out: hPAD4-RFMS: pIC50 (Average) (converted)

Sequence of hPAD4 enzyme (Q9UM07 whole entry): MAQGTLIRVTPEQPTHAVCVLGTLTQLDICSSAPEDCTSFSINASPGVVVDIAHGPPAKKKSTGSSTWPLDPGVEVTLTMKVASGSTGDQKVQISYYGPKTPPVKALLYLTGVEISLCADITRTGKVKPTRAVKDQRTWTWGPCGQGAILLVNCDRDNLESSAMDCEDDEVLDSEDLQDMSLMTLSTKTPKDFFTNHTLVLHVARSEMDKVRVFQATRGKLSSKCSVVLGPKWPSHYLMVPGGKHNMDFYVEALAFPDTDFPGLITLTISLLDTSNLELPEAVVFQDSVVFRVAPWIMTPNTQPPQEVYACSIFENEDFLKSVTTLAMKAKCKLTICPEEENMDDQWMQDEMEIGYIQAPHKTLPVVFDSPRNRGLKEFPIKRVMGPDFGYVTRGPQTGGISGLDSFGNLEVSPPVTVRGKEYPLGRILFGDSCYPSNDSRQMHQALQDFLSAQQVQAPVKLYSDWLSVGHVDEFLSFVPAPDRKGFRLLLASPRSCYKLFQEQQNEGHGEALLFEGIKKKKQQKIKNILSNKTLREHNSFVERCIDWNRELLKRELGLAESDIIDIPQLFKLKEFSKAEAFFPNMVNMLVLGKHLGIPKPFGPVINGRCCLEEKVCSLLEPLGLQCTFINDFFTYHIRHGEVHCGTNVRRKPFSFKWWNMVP

Row | SMILES | IC50 [1] | IC50 [2] | hPAD4-RFMS: pIC50 (Average)
1 | Cn1c(/C=C/C(=O)c2c(-c3ccccc3)c3ccccc3n(C)c2=O)nc2ccccc21 [Compound I-72] | > 100 µM | 10 to 100 µM | –
2 | O=C(/C=C/c1cncnc1)c1c(-c2cccnc2)c2ccccc2[nH]c1=O [Compound I-95] | > 100 µM | 100 to 100000 µM | –
3 | O=C(/C=C/c1cncnc1)c1c(-c2ccccc2)c2cnccc2[nH]c1=O [Compound I-90, 4-phenyl-3-[(2E)-3-(pyrimidin-5-yl)prop-2-enoyl]-1,2-dihydro-1,6-naphthyridin-2-one] | > 100 µM | 100 to 100000 µM | –
4 | COc1ccc(/C=C/C(=O)c2ccc[nH]c2=O)cc1 [Compound I-151] | > 100 µM | 100 to 100000 µM | –
5 | O=C(/C=C/c1nc2ccccc2[nH]1)c1c(-c2ccccc2)c2ccccc2[nH]c1=O [Compound I-103] | 20 to 100 µM | – | F (pIC50 of 4-5)
6 | O=C(/C=C/c1ccccn1)c1c(-c2ccc(F)cc2)c2ccccc2[nH]c1=O [Compound I-108] | > 100 µM | 100 to 100000 µM | –
7 | C#CCOCCOCCOc1ccc(/C=C/C(=O)c2c(-c3ccccc3)c3ccccc3[nH]c2=O)cc1 [Compound I-109, 4-phenyl-3-[(2E)-3-(4-{2-[2-(prop-2-yn-1-yloxy)ethoxy]ethoxy}phenyl)prop-2-enoyl]-1,2-dihydroquinolin-2-one] | > 100 µM | 100 to 100000 µM | –
8 | O=C(/C=C/c1cccnc1)c1c(-c2ccccn2)c2ccccc2[nH]c1=O [Compound I-124] | > 100 µM | 100 to 100000 µM | –
9 | COc1ccc(/C=C/C(=O)c2c(-c3ccccc3)c3ccccc3[nH]c2=O)cc1 [Compound I-139] | 3 to 20 µM | < 10 µM | –
